We go through two compounds from US5124158A, “Transdermal antisecretory agents for gastrointestinal disease” (The Upjohn Company, priority 1990, dated 1992).

The subject of data set [1] is (H^+ -K^+) ATPase. Nature of the data set: Transdermal application to backs of rats, (H+-K+) ATPase activity in fundic gastric mucosal microsomes (K+-dependent ATP-hydrolysis). Type of data set: in vivo, rat. The procedure: (§1) The animals were allowed to rest for varying amounts of time and then the inhibition of (H^+ -K^+) ATPase, the enzyme responsible for gastric acid secretion, was measured.
(§2) For each of the following examples the drug dilutions were prepared in DMSO to a final concentration of 150 mg/ml. The drug was made fresh prior to each application.
(§3) The inhibition of (H^+ -K^+) ATPase activity was determined as described by Im, W. B.; Blalkeman, D. P., "Inhibitiion of Gastric pH^+ -K^+) ATPase by Unsaturated Long Chain Fatty Acids" Biochem. et Biophy. […] For the rat models, fundic gastric mucosal microsomes were prepared and (H^+ -K^+) ATPase activity in the microsomes was estimated by measuring K^+ -dependent ATP-hydrolysis.
(§4) Male, Upjohn Sprague Dawley rats were anesthetized with sodium pentobarbital and their dorsal hair removed with the depilatory NAIR. Care was taken to prevent abrasions which might result from hair removal. The animals were returned to their cages and allowed to recover for twenty-four hours. The rats were then fasted overnight in metal restraining tubes without water prior to treatment. 2-(4-ethylthio-3-methylpyridin-2-yl methyl)sulfinyl-benzimidazole at 0 or 100 mg/kg was applied to the backs of the rats and spread with an Eppendorf pipette tip. The same volume of DMSO alone was applied after 2 hrs to all animals. The rats were evaluated 5 or 30 hours after the initial dose for determination of (H^+ -K^+) ATPase activity.
as §4, with “Omeprazole” for “2-(4-ethylthio-3-methylpyridin-2-yl methyl)sulfinyl-benzimidazole”
(§5) Additional volumes (100 μl) of DMSO were spread over the treatment area one time (after two hours) or four times (after one, two, three and four hours). The animals were evaluated 5 hours after the initial dose for determination of (H^+ -K^+) ATPase activity.
(§6) Additional volumes (100 μl) of DMSO were spread over the treatment area after 2, 5, and 7 hours. The animals were evaluated 24 hours after the initial dose for determination of (H^+ -K^+) ATPase activity.

Assay in data set [2]: as above
Type of data set: in vivo, rat. Conditions: rat, in vivo, topical or ocular, transdermal, lowest dose 25 mg/kg, read-out: fraction of the lowest dose absorbed. The method, then: as §1, §2, §3, §4
as §4, with “Omeprazole” for “2-(4-ethylthio-3-methylpyridin-2-yl methyl)sulfinyl-benzimidazole”
as §5, §6

Data set [3] concerns (H^+ -K^+) ATPase. Nature of the data set: Transdermal application to rabbit ears, (H+-K+) ATPase activity in fundic mucosa. Type of data set: in vivo. The following applies: rabbits, transdermal 100 mg/kg divided to both ears, DMSO after 1, 3, 5, 7, 24 and 25 hrs, evaluated 30 hrs after dose. The method, then: as §1, §2
The inhibition of (H^+ -K^+) ATPase activity was determined as described by Im, W. B.; Blalkeman, D. P., "Inhibitiion of Gastric pH^+ -K^+) ATPase by Unsaturated Long Chain Fatty Acids" Biochem. et Biophy. Acta 692:355-60 (1982). For the rat models, fundic gastric mucosal microsomes were prepared and (H^+ -K^+) ATPase activity in the microsomes was estimated by measuring K^+ -dependent ATP-hydrolysis.
For the rabbit models, mucosa from the fundic region was removed by blunt dissection and minced with scissors. 2.5 g of the minced tissue was placed in 25 ml of buffer containing 250 mM sucrose, 2 mM MgCl2, 1 mM EGTA, and 2 mM Hepes/Tris, pH 7.4. The tissues were then prepared as described for the rat gastric mucosa.
Male, New Zealand White rabbits were fasted overnight without water in their cages prior to treatment. The same compound as used in Example 1 was applied at 0 or 100 mg/kg in divided doses (1/2 to each ear) to naive rabbit ears. […] The rabbits were evaluated 30 hrs after the initial dose for determination of (H^+ -K^+) ATPase activity.

Data set [4] is described as follows: Signs of irritation after transdermal application. The following applies: rabbit ears, transdermal 100 mg/kg in DMSO. Type of data set: in vivo. The procedure:
Male, New Zealand White rabbits were fasted overnight without water in their cages prior to treatment. The same compound as used in Example 1 was applied at 0 or 100 mg/kg in divided doses (1/2 to each ear) to naive rabbit ears. The rabbits received an additional application of DMSO to the treatment area after 1, 3, 5, 7, 24 and 25 hrs. The rabbits were evaluated 30 hrs after the initial dose for determination of (H^+ -K^+) ATPase activity.

Take `CCSc1ccnc(C[S+]([O-])c2nc3ccccc3[nH]2)c1C` (centres unmarked) [2-(4-ethylthio-3-methylpyridin-2-ylmethyl)sulfinyl-benzimidazole]: the “reduction of (H^+ -K^+) ATPase activity from control” value in the data set on (H^+ -K^+) ATPase [1] (transdermal 100 mg/kg in DMSO, DMSO alone after 2 hrs, evaluated 5 or 30 hours after dose (activity did not change with time)) is recorded as 60-65%; with (H^+ -K^+) ATPase [1] (transdermal 100 mg/kg, one DMSO wipe after two hours, evaluated 5 hours after dose (Example 3)), 65%; in the data set on (H^+ -K^+) ATPase [3], 87%. For the same compound, in the data set on (H^+ -K^+) ATPase [1] (transdermal 100 mg/kg, four wipes of DMSO (1, 2, 3, 4 hours) versus one wipe, 5 hours), the “additional reduction of (H^+ -K^+) ATPase activity by additional applications of DMSO” value worked out at 16%. Also, the “reduction of (H^+ -K^+) ATPase activity” value in the data set on (H^+ -K^+) ATPase [1] (transdermal 100 mg/kg, four wipes of DMSO (1, 2, 3, 4 hours), 5 hours) was 81%; with (H^+ -K^+) ATPase [1] (transdermal 200 mg/kg, one wipe of DMSO after two hours, 5 hours), 72%. Also, the “reduction in (H^+ -K^+) ATPase from the control” value in the data set with (H^+ -K^+) ATPase [1] (transdermal 25, 50 or 100 mg/kg (maximum even at the lower dose), DMSO after 2, 5 and 7 hours, evaluated 24 hours after dose) was approximately 50%. For the same compound, the Fa in data set [2] is not below 4%. For the same compound, in data set [4], the signs of irritation entry is reported as “no signs of irritation were observed”.

`COc1ccc2[nH]c([S+]([O-])Cc3ncc(C)c(OC)c3C)nc2c1` (centres unmarked) [omeprazole, reference compound]: the “reduction of (H^+ -K^+) ATPase activity as compared to the control” value in the data set on (H^+ -K^+) ATPase [1] (transdermal 100 mg/kg in DMSO, DMSO alone after 2 hrs, after 5 hours) was determined as 35%; in the data set on (H^+ -K^+) ATPase [1] (transdermal 100 mg/kg in DMSO, DMSO alone after 2 hrs, after 30 hours), 27%.
